Results from US20100063302A1, “CYCLIC SULFONIUM SALT, METHOD FOR PRODUCTION OF CYCLIC SULFONIUM SALT, AND GLYCOSIDASE INHIBITOR” (Takano Co., Ltd., priority 2007, published 2010).
In brackets after ≈: the same amount, converted by molar mass.

Assays:
Type in all cases: biochemical
isomaltase = target: T1, isomaltase (Homo sapiens, UniProt P14410); assay: α-glycosidase-inhibiting activity, isomaltase (small intestinal brush border membrane vesicles); details: substrate isomaltose (74 mM), 0.1 M maleic acid buffer pH 6.0, 37° C., 30 minutes, glucose-oxidase method
T1 construct: suspending small intestinal brush border membrane vesicles in 0.1 M maleic acid buffer (pH 6.0); from tissue; host or cells: small intestinal brush border membrane vesicles
T1 sequence (P14410 whole entry, species assumed): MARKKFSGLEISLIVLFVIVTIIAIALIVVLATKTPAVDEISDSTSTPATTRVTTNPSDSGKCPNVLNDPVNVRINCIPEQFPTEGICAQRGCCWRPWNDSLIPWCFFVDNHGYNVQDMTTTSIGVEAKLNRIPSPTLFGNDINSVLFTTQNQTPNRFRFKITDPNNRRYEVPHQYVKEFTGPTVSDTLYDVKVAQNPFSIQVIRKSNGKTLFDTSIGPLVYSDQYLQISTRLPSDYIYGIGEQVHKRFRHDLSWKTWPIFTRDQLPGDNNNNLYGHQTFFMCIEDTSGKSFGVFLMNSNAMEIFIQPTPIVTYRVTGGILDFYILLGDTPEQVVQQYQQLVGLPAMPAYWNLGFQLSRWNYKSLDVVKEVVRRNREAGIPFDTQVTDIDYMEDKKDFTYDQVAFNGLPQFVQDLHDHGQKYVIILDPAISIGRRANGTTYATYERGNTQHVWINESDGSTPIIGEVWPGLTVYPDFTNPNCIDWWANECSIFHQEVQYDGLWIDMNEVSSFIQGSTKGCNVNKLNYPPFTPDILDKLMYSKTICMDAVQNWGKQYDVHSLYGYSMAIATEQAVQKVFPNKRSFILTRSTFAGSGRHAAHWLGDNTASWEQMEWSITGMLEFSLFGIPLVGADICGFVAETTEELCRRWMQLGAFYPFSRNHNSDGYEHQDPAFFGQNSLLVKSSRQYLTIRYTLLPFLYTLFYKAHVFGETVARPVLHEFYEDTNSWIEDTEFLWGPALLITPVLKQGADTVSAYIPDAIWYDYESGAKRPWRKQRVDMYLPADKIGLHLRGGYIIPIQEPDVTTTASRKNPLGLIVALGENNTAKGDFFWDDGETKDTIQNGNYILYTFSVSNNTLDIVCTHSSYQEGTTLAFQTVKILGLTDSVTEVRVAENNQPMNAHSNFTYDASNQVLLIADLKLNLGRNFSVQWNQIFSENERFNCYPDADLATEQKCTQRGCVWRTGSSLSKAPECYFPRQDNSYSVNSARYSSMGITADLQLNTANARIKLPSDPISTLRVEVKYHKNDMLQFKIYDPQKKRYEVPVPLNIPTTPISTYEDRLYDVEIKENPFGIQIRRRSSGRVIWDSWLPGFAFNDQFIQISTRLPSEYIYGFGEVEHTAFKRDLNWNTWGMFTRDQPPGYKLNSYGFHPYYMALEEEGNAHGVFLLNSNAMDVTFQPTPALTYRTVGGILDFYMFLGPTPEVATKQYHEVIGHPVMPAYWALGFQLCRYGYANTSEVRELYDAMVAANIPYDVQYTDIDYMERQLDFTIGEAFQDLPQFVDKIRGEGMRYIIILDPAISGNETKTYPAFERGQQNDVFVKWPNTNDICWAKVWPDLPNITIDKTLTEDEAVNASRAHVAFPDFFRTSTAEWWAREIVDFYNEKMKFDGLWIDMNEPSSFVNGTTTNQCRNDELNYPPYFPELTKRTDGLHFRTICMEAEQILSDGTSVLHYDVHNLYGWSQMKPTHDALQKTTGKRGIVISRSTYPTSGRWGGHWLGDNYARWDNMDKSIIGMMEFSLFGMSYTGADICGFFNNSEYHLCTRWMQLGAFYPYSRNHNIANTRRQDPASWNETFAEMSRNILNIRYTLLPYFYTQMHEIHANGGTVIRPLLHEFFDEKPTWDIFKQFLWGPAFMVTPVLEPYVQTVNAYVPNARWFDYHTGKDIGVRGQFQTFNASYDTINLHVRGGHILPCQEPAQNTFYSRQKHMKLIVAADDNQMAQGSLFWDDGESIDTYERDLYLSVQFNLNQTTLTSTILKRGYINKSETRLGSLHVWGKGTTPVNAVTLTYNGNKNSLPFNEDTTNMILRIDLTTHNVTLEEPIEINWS
Description: (§1) The compounds (6a), (6b), (6c) and (6d), each prepared by Example 25, as well as the compound (6g) prepared by Example 27 were each measured for α-glycosidase-inhibiting activity. […] To each of sucrose (74 mM), maltose (74 mM) and isomaltose (74 mM) solution as a substrate, there was added a solution (0.05 ml) of a test compound in various concentrations, and the resulting mixture was pre-heated at 37° C. for 2 to 3 minutes, followed by addition of an enzyme solution and reaction for 30 minutes. Thereafter, water was added and the resulting mixture was heated in a boiling water bath for 2 minutes in order to inactivate the enzyme. Separately, the enzyme solution was added to each of the test solutions and immediately thereafter heated in boiling water bath for 2 minutes to inactivate the enzyme. This solution was used as a blank. The amount of […] D-glucose was measured in accordance with glucose-oxidase method. The substrate and test compounds were used in a solution of 0.1 M maleic acid buffer (pH 6.0). A 50% inhibitory concentration (IC50) was calculated from the value observed.

sucrase = target: T2, sucrase (Homo sapiens, UniProt P14410); assay: α-glycosidase-inhibiting activity, sucrase (small intestinal brush border membrane vesicles); details: substrate sucrose (74 mM), 0.1 M maleic acid buffer pH 6.0, 37° C., 30 minutes, glucose-oxidase method
T2 construct: suspending small intestinal brush border membrane vesicles in 0.1 M maleic acid buffer (pH 6.0); from tissue; host or cells: small intestinal brush border membrane vesicles
T2 sequence (P14410 whole entry, species assumed): as above
Description: as §1

maltase = assay: α-glycosidase-inhibiting activity, maltase (small intestinal brush border membrane vesicles); details: substrate maltose (74 mM), 0.1 M maleic acid buffer pH 6.0, 37° C., 30 minutes, glucose-oxidase method
Description: as §1

| Compound | IC50 (isomaltase) | IC50 (sucrase) | IC50, maltase (maltase) |
| --- | --- | --- | --- |
| O=S(=O)([O-])OC(C(O)C[S+]1CC(O)C(O)C1CO)C(O)C(O)C(O)CO (single isomer, unassigned) [Compound (6a)] | 1.63 µM | 66.9 µM | 20.6 mg/L (≈ 48.5 µM) |
| O=S(=O)([O-])OC(C(O)C[S+]1CC(O)C(O)C1CO)C(O)C(O)C(O)CO (single isomer, unassigned) [Compound (6b)] | 10.8 µM | 136 µM | >100 mg/L |
| O=S(=O)([O-])OC(C(O)C[S+]1CC(O)C(O)C1CO)C(O)C(O)C(O)CO (single isomer, unassigned) [Compound (6d)] | 6.53 µM | 32.3 µM | 24.8 mg/L (≈ 58.4 µM) |
| O=S(=O)([O-])OC(C(O)C[S+]1CC(O)C(O)C1CO)C(O)C(O)C(O)CO (single isomer, unassigned) [Compound (6g)] | 158 µM | > 236 µM | >100 mg/L |
| O=S(=O)([O-])OC(C(O)C[S+]1CC(O)C(O)C1CO)C(O)C(O)C(O)CO (single isomer, unassigned) [kotalanol, reference compound] | 5.68 µM | 0.754 µM | 3.07 mg/L (≈ 7.23 µM) |
| O=S(=O)([O-])OC(C(O)C[S+]1CC(O)C(O)C1CO)C(O)C(O)C(O)CO (stereo not drawn) [Compound (6c)] | 16.2 µM | 214 µM | >100 mg/L |
